Measured values: patent publication US20240293352A1 (priority 2021, published 2024)

Assays:
[1] = test system: VSVD51-GFP in 786-0 cells; assay type: cell-based, human
[2] = test system: oncolytic RNA viruses including vesicular stomatitis virus (VSV) and measles; details: cited from earlier work

| Molecule | Approximate Peak Viral Sensitizer Dose [1] [µM] | Viral sensitization activity / VSVD51 spread (in words) [1] | Replication and spread of oncolytic RNA viruses (in words) [2] |
| --- | --- | --- | --- |
| vanadium (V) citrate [CDOS140] | 30 | exhibited viral sensitization activity |  |
| Cc1occc(=O)c1[O-].Cc1occc(=O)c1[O-].[O]=[V+2] [BMOV, bismaltolatoxovanadate] |  |  | improve the replication and spread of oncolytic RNA viruses |
| vanadium (V) citrate peroxo [CDOS141] | 50 | exhibited viral sensitization activity |  |
| [O]=[V]([O-])([O-])[O-] [orthovanadate] |  |  | improve the replication and spread of oncolytic RNA viruses |
| vanadium (IV) citrate [CDOS139] |  | exhibited viral sensitization activity |  |
| [O]=[V]([O-])([O-])[O-] [Vanadate, vanadate, reference compound] | 200 | increase in GFP foci |  |
